Measurements taken from publication doi:10.1101/2025.07.08.663703, “Recruitment of Mre11 to recombination sites during meiosis” (bioRxiv, 2025).
Ends that are not written are not given here.

Columns and labels:
[1] = tested on: MMS-induced Mre11myc foci; experiment: Immunofluorescence of MMS-induced Mre11myc foci in vegetative yeast, 1,6-hexanediol treatment; assay type: cell-based, Saccharomyces cerevisiae SK1; details: 5% 1,6-hexanediol, 4–5 minutes, spheroplasts, vegetative cells
Method: Following standard protocols, strains were patched on YPG plates, mated and streaked on YPD plates, and selected diploid colonies grown in liquid YPD at 30°C, 250 rpm, overnight. For meiotic synchronization, diploid cultures grown overnight in YPD were transferred to YPA (1% yeast extract, 2% peptone, 1% potassium acetate) at OD600 0.2 and grown for 12–14 hours at 30°C, 250 rpm. […]
Slides were blocked with 90% FBS, 1× PBS for 1 hour at room temperature in a humid chamber and then incubated with primary antibody (mouse mAb anti-myc, 1:200 (2276S, Cell Signaling Technology), rabbit anti-phospho H2A-S129, 1:200 (ab15083, abcam)) diluted in 3% BSA, 1× PBS in a humid chamber for 2 hours at 37°C or overnight at 4°C. Slides were washed three times with 1× PBS in a Coplin jar, were incubated with secondary antibody (goat anti-mouse IgG Alexa Fluor™ Plus 488, 1:200 (A32723, Invitrogen), donkey anti-rabbit IgG Alexa Fluor™ 546, 1:200 (A10040, Invitrogen) diluted in 3% BSA, 1× PBS in a humid chamber at 37°C for 1 hour. Slides were washed in the dark three times for 5 mins with 1× PBS, mounted with Vectashield containing DAPI (Vector Labs). Images were captured on a Zeiss Axio Observer with a 100×/1.4 NA oil immersion objective and were analyzed in ImageJ.

[2] = tested on: mre11-ΔC49 and mre11-ΔIDR yeast strains; experiment: MMS and CPT sensitivity assay (spotting of serial dilutions); assay type: cell-based, Saccharomyces cerevisiae SK1; details: ten-fold serial dilutions on YPD plates, two days at 30°C; for resistance of mre11-ΔC49 mutant: mre11-ΔC49 strain; for resistance of mre11-ΔIDR mutants: mre11-ΔIDR strain
Method: Following standard protocols, strains were patched on YPG plates, mated and streaked on YPD plates, and selected diploid colonies grown in liquid YPD at 30°C, 250 rpm, overnight. For meiotic synchronization, diploid cultures grown overnight in YPD were transferred to YPA (1% yeast extract, 2% peptone, 1% potassium acetate) at OD600 0.2 and grown for 12–14 hours at 30°C, 250 rpm. Once the cultures reached OD600 between 1.2–1.6, cells were washed once with prewarmed sterile water and immediately transferred to sporulation medium supplemented with amino acids (320 μL amino acid complementation media for 100 mL of sporulation media (SPM)) and were kept shaking at 30°C, 250 rpm during the entire meiotic time-course. For MMS and CPT (Sigma) sensitivity assays, serial dilutions of overnight cultures were spotted on freshly prepared YPD-MMS or YPD-CPT plates containing indicated percentage of MMS or CPT, respectively. Plates were grown for two days at 30°C. For immunofluorescence of vegetatively growing cells, overnight cultures were refreshed by diluting to OD600 0.2 and grown for 3–4 hours to reach OD600 1.2–1.4 before subjecting to MMS or MMS followed by 5% 1,6-hexanediol treatment. For 5% 1,6-hexanediol treatment, cells were first converted to spheroplasts and then treated with 5% 1,6-hexanediol for 4–5 minutes. Spheroplasts were then immediately washed, lysed, and fixed using protocol described below.

Smt3 = biological target: T1, Smt3 (Saccharomyces cerevisiae, UniProt Q12306); experiment: NMR chemical shift perturbation of U-[13C,15N] Smt3 by SIM3 peptides; assay type: binding, yeast (S. cerevisiae); details: [1H,15N] HSQC, 1.2 molar equivalents of peptide, 0.3 mM U-[13C,15N] Smt3, 20 mM sodium phosphate, 20 mM NaCl, pH 6.5, 10% D2O, 298 K, 800 MHz
T1 construct: 6xHis (C); made in house; host or cells: E. coli BL21 (DE3)pLysS
Method: For the production of the doubly labeled U-[^13C, ^15N] […] The purification protocol remained the same as described above.
The samples contained 0.3–0.6 mM of U-[^13C,^15N] […] All NMR spectra were acquired at 298 K on a Bruker Avance III HD 800 MHz spectrometer, equipped with a TCI cryoprobe. The NMR data were processed in TopSpin 3.6 (Bruker) or NMRPipe[70] and analyzed in CCPNMR[71]. Assignments of Smt3 backbone amide resonances were taken from literature[72] and verified by 3D HNCACB, HN(CO)CACB, and ^15N-edited NOESY-HSQC spectra. […] The assigned ^1H, ^13C and ^15N chemical shifts of the free and bound Smt3 have been deposited in the Biological Magnetic Resonance Bank (http://www.bmrb.wisc.edu/) under the accession number 53209.
The NMR binding experiments were performed by an incremental addition of wild-type or mutant SIM peptides (1.2 mM stocks in the working buffer) to 0.3 mM samples of U-[^13C,^15N] Smt3, with the spectral changes monitored in [^1H,^15N] HSQC spectra acquired at each increment. The average chemical shift perturbations (Δδavg) were calculated as Δδavg = (ΔδX^2/50 + ΔδH^2/2)^0.5, where ΔδX and ΔδH are the chemical shift changes of the backbone amide nitrogens or methyl carbons (ΔδX) and protons (ΔδH) of Smt3 residues upon addition of 1.2 molar equivalents of SIM peptides, and n = 50 or 9 for the backbone amide and methyl groups, respectively.

Mer2 [3] = experiment: Co-expression NiNTA pulldown of MBP-Mre11-C49 (prey) with HisSUMO-Mer2 (bait); assay type: binding, S. cerevisiae; details: co-expression in E. coli, anti-MBP elution/input signal normalized to wild type, at least seven independent samples
Text: The vector for expression of ^MBPMre11-C49 and ^HisSUMOMer2 (pCCB1040) was based on a pET-Duet1 vector with the sequence coding for ^MBPMre11-C49 cloned within the first position (SacI site) and the sequence coding for ^HisSUMOMer2 cloned at the second position (XhoI site). The EQEK mutations and LLK mutations were introduced by PCR amplification of pCCB1040 with primers cb1561 and cb1562, and pp84 and pp85, followed by phosphorylation and self-ligation to yield plasmids pry59 and pry61, respectively.
Wild-type and mutant MBP-tagged Mre11-C49 and HisSUMO-tagged Mer2 were co-expressed in 50 mL of E. coli BL21 cultures and purified by affinity chromatography on Ni-NTA resin following a procedure similar to that described above. Briefly, cells were lysed by sonication and centrifuged at maximum speed for 30 mins at 4°C on a table-top centrifuge. A small fraction of the supernatant was collected as ‘Input’ and the remainder was incubated with 120 μL Ni-NTA resin, pre-equilibrated with wash buffer (25 mM HEPES pH 7.5, 20 mM imidazole, 0.1 mM DTT, 0.1 mM PMSF, 10% glycerol), for 1 hour on a rotating wheel at 4°C. The resin was washed twice with 2 ml in batch and five times with 2 ml on column before eluting with 250 μL of 500 mM imidazole in wash buffer. […]

Mer2 [4] = experiment: In vitro colocalization of Mre11 with Mer2 condensates; assay type: binding, S. cerevisiae
Method: Proteins were diluted to a 10× stock of their appropriate working concentrations in their respective storage buffers. […] Unless specified otherwise, all reactions contained 400 nM ^Alexa488Mre11 or 100 nM ^eGFPMRX. A typical 20 μL binding reaction contained 2 μL protein of 10× stock of indicated concentration, 10 μL of 2× reaction buffer, and 150 ng of supercoiled pUC19 (5.7 nM). Typical reactions were assembled at 30°C for 30 mins with gentle mixing every 5 mins, unless mentioned otherwise. 5 μL was dropped onto a microscope slide and covered with a coverslip. All images were captured on a Zeiss Axio Observer with a 100×/1.4 NA oil immersion objective except for images provided in Figure 4G which were captured on Leica Stellaris DMI 8 confocal microscope with a 63x/1.2 NA water immersion objective. Images were analyzed with ImageJ using a custom-made script. In brief, 129.24 × 129.24-μm (2048 × 2048-pixel) images were thresholded to mean intensity of the background plus three times the standard deviation of the background. Masked foci were counted and the intensity inside the focus mask was integrated. Data points represent averages of at least 8–10 images per sample. Data were analyzed using Graphpad Prism 10.4.0.

T1 sequence (Q12306 whole entry): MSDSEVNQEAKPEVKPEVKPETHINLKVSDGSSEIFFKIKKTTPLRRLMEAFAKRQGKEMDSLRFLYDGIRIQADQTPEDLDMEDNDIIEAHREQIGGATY

Row | Molecule | resistance of mre11-ΔC49 mutant [2] | resistance of mre11-ΔIDR mutants [2] | interaction of Mre11-C49 and Mer2 in pulldown (anti-MBP immunoblot) (Mer2 [3]) | further results
1 | OCCCCCCO [1,6-hexanediol] | – | – | – | effect on MMS-induced Mre11 foci [1]: readily dissolved MMS-induced foci
2 | COS(C)(=O)=O [MMS, methylmethanesulfonate] | resistant | as resistant to MMS or CPT as wild-type cells | – | –
3 | CC[C@@]1(O)C(=O)OCc2c1cc1n(c2=O)Cc2cc3ccccc3nc2-1 [camptothecin] | resistant | as resistant to MMS or CPT as wild-type cells | – | –
4 | ENDIIMVSTDE [wild-type SIM3 peptide] | – | – | – | backbone amide chemical shift perturbation of Smt3 (Smt3): induced strong backbone amide chemical shift to Smt3 residues I35, F36, F37, K38, I39 and R46
5 | Mre11-C49: Mre11 C-terminal residues (644–692) (SYGLLNGRKTKTKTRPAASTKTASRRGKGRASRTPKTDILGSLLAKKRK; also: MBP fusion, end not given here) | – | – | directly binds Mer2 | localization of Mre11-C49 around Mer2 condensates (Mer2 [4]; 800 nM mScarletMre11-C49 and 200 nM eGFPMer2, 30 min): forms a halo-like structure around Mer2 condensates; independent condensate formation of Mre11-C49 (Mer2 [4]; 800 nM mScarletMre11-C49 without eGFPMer2): does not form condensates independently
6 | Mre11-LLK: Mre11-C49 with L683, L686, and K690 mutated to alanine (SYGLLNGRKTKTKTRPAASTKTASRRGKGRASRTPKTDIAGSALAKARK; also: MBP fusion, end not given here) | – | – | strongly decreased the interaction between the two partners | –
